In patent publication US7846917B2, “18-Methyl-19-norandrost-4-ene 17, 17-spiro ether (18-methyl-19-nor-20-spirox-4-en-3-one), and pharmaceutical products comprising the same” (Bayer Schering Pharma AG, priority 2006, dated 2010):

Key:
progesterone receptor = biological target: T1, progesterone receptor (Oryctolagus cuniculus, UniProt P06186); test: progesterone receptor binding assay using cytosol from rabbit uterus homogenate; conditions: for PR [KF]: 3H-progesterone = 1; for PR [RBA]: 3H-progesterone = 100
T1 construct: cytosol from rabbit uterus homogenate; from tissue; host or cells: rabbit uterus (cytosol of homogenate)
T1 sequence (P06186 1-930): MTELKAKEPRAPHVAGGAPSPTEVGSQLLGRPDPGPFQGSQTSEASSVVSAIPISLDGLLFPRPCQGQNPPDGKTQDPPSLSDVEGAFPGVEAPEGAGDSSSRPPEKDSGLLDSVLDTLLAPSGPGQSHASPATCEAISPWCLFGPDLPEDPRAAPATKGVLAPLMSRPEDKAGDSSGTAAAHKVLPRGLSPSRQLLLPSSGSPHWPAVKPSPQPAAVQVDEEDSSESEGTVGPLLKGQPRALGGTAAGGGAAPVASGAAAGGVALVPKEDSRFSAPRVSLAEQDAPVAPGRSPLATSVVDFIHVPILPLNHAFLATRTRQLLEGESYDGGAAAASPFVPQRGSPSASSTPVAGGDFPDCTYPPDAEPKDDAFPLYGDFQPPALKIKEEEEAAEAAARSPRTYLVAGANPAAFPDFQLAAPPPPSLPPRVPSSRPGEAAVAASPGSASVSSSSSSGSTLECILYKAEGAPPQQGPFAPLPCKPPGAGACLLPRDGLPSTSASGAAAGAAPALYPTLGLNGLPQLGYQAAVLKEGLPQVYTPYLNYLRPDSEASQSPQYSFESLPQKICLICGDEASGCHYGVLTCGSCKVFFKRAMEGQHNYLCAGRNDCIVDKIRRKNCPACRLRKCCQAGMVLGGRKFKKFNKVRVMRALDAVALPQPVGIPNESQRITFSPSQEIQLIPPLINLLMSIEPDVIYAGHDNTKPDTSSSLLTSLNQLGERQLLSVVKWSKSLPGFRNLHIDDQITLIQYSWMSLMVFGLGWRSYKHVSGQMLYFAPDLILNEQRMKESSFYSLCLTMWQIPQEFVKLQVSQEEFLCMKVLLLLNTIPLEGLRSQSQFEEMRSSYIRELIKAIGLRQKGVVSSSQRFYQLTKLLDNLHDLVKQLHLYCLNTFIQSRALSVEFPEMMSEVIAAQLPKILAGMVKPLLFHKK
Text: (§1) This object is achieved by the provision of the 18-methyl-15β,16β-methylene-19-nor-20-spirox-4-en-3-ones of the general formula I described herein.

[1] = biological target: T2, mineralocorticoid receptor (Rattus norvegicus, UniProt P22199); test: mineralocorticoid receptor binding, rat kidney homogenate; conditions: for MR [KF]: 3H-aldosterone = 1; for MR [RBA]: 3H-aldosterone = 100
T2 construct: mineralocorticoid receptor from rat kidney homogenate; from tissue; host or cells: rat kidney homogenate
T2 sequence (P22199 1-981): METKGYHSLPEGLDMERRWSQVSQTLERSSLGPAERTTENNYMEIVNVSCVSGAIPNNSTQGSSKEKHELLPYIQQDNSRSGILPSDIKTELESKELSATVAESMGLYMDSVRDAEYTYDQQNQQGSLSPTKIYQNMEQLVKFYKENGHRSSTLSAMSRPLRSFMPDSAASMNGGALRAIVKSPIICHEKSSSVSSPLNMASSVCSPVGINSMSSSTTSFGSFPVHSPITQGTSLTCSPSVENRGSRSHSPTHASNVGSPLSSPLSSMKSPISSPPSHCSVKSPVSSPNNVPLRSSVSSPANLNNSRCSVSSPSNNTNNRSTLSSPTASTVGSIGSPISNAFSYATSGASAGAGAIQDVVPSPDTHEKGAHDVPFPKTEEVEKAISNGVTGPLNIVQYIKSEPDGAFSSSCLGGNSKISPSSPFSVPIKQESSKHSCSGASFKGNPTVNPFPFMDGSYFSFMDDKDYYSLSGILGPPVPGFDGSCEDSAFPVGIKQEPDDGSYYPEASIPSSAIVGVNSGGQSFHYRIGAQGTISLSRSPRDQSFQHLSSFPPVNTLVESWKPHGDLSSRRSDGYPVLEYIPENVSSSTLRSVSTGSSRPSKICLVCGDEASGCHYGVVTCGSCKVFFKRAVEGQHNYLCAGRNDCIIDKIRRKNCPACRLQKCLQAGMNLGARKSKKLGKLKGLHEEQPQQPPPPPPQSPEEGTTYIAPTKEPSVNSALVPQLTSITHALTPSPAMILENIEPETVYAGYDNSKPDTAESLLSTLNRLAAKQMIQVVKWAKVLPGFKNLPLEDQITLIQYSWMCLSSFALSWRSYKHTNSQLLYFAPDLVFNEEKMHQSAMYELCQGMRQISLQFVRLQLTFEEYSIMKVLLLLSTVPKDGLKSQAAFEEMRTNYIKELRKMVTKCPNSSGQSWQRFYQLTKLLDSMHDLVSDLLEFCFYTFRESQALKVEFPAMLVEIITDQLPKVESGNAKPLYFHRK
Text: as §1

SMILES | PR [KF] (progesterone receptor) | PR [RBA] (progesterone receptor) | MR [KF] [1] | MR [RBA] [1]
CCC12CCC3C4CCC(=O)C=C4CC(C)C3C1C1CC1C21CCCO1 (stereo not drawn) [Example 7, 7β,18-Dimethyl-15β,16β-methylene-19-nor-20-spirox-4-en-3-one] | 1.08 | 93 | 0.5 | 200
CC[C@]12CC[C@H]3[C@H]([C@@H]1[C@@H]1C[C@@H]1[C@@]21CCCO1)[C@H](C)CC1=CC(=O)CC[C@@H]13 [Example 6, 7α,18-Dimethyl-15β,16β-methylene-19-nor-20-spirox-4-en-3-one] | 1.13 | 88 | 0.6 | 167
C[C@]12CCC(=O)C=C1[C@@H]1C[C@@H]1[C@H]1[C@@H]3[C@@H]4C[C@@H]4[C@@]4(CCC(=O)O4)[C@@]3(C)CC[C@@H]12 [DRSP, 6β,7β-15β,16β-dimethylene-3-oxo-17-pregn-4-ene-21,17β-carbolactone, reference compound] | 2.5 | 40 | 0.3 | 333
CC[C@]12CCC3C4CCC(=O)C=C4C4CC4C3C1[C@@H]1C[C@@H]1[C@@]21CCCO1 (stereo partly drawn) [Example 2, 18-Methyl-6α,7α,15β,16β-dimethylene-19-nor-20-spirox-4-en-3-one] | 2.34 | 43 | 0.4 | 250

More lines, now with the values ahead:

PR [KF] (progesterone receptor) | PR [RBA] (progesterone receptor) | MR [KF] [1] | MR [RBA] [1] | SMILES
3.245 | 31 | 7.6 | 13 | CC[C@]12CC[C@H]3[C@@H](CCC4=C(C)C(=O)CC[C@@H]43)[C@@H]1[C@@H]1C[C@@H]1[C@@]21CCCO1 [Example 14, 4,18-Dimethyl-150,16β-methylene-19-nor-20-spirox-4-en-3-one]
3.45 | 29 | 7.8 | 13 | CCC12CCC3C4CCC(=O)C(C)=C4C4CC4C3C1C1CC1C21CCCO1 (stereo not drawn) [Example 17, 4,18-Dimethyl-6β,7β,15β,16β-dimethylene-19-nor-20-spirox-4-en-3-one]
4.295 | 23 | 42 | 2 | CCC1CC2=CC(=O)CCC2C2CCC3(CC)C(C4CC4C34CCCO4)C12 (stereo not drawn) [Example 9, 7β-Ethyl-18-methyl-15β,16β-methylene-19-nor-20-spirox-4-en-3-one]
3.01 | 33 | 88 | 1 | CC[C@]12CC[C@H]3[C@@H]([C@H]4C[C@H]4C4=C(Cl)C(=O)CC[C@@H]43)[C@@H]1[C@@H]1C[C@@H]1[C@@]21CCCO1 [Example 18, 4-Chloro-18-methyl-6β,7β,15β,16β-dimethylene-19-nor-20-spirox-4-en-3-one]
2.355 | 42 | 0.7 | 143 | CC[C@]12CC[C@H]3[C@H]([C@@H]1[C@@H]1C[C@@H]1[C@@]21CCCO1)[C@H](C1CC1)CC1=CC(=O)CC[C@@H]13 [Example 12, 7α-Cyclopropyl-18-methyl-15β,16β-methylene-19-nor-20-spirox-4-en-3-one]
